{
  "source": "patent US9840528B2",
  "about": "“Thione-platinum(II) complexes and pharmaceutical compositions thereof” (priority 2015, dated 2017)",
  "key": {"[1]": {"tested_on": "A549 (human lung carcinoma) cell line", "test": "MTT assay, in vitro cytotoxicity against A549", "format": "cell-based", "settings": "A549 cells; for in vitro cytotoxicity in comparison, A549: compared with cisplatin, carboplatin or each other; for IC50: MTT, 24 h exposure, read-out: IC50 ± SEM A549", "method": "(§1) Monim-ul-Mehboob, A. A. Isab, V. Dhuna, G. Bhatia, K. Dhuna and S. Altuwaijri, New J. Chem., 39 (2015) 377-incorporated herein by reference in its entirety]. The cells were seeded at 3×10^3 cells/well in 100 μL DMEM containing 10% Fetal Bovine Serum (FBS) in 96-well tissue culture plate and incubated for 72 h at 37° C., 5% CO2, in air and 90% relative humidity in CO2 incubator. […] The medium of wells was discarded and 100 μL DMEM containing MTT (0.5 mg/ml) was added to the wells and incubated in CO2 incubator at 37° C. in dark for 4 h. After incubation, a purple colored formazan produced in the cells appeared as dark crystals in the bottom of the wells. The culture medium was discarded from each well carefully to prevent disruption of monolayer and 100 μL of dimethyl sulfoxide (DMSO) was added in each well. The solution in the wells was thoroughly mixed to dissolve the formazan crystals which produce a purple solution. The absorbance of the 96 well-plates was taken at 570 nm with Labsystems Multiskan EX ELISA reader against a reagent blank. […] The MTT assay was performed in three independent experiments, each in triplicate. […] A549 (human lung carcinoma), MCF7 (human breast cancer), HCT15 (human colon adenocarcinoma), and HeLa (human cervical cancer) cell lines. […] This cytotoxic effect was obtained by the stipulated increase in the concentrations of the complexes and cisplatin against fixed number of human cancer cells. The IC50 concentration of the complexes and Cisplatin for different human cell lines was obtained from curves between the complexes concentration and percentage viability of the cells."}, "[2]": {"tested_on": "MCF7 (human breast cancer) cell line", "test": "MTT assay, in vitro cytotoxicity against MCF7", "format": "cell-based", "settings": "MCF7 cells; for in vitro cytotoxicity in comparison, MCF7: compared with cisplatin or each other; for IC50: MTT, 24 h exposure, read-out: IC50 ± SEM MCF7", "method": "as §1"}, "[3]": {"tested_on": "HCT15 (human colon adenocarcinoma) cell line", "test": "MTT assay, in vitro cytotoxicity against HCT15", "format": "cell-based", "settings": "HCT15 cells; for IC50: MTT, 24 h exposure, read-out: IC50 ± SEM HCT15", "method": "as §1"}, "[4]": {"test": "Stability in DMSO-d6 by time dependent 1H NMR", "format": "physicochemical", "settings": "spectra after 1, 6, 12, 24, 48 and 72 h", "method": "Complexes (1), (5) and (6) were dissolved in DMSO-d6 and their ^1H NMR spectra were measured. The extent of decomposition over time was determined by comparing the NMR spectra collected after 1, 6, 12, 24, 48 and 72 h."}, "[5]": {"tested_on": "HeLa (human cervical cancer) cell line", "test": "MTT assay, in vitro cytotoxicity against HeLa", "format": "cell-based", "settings": "24 h exposure, HeLa cells, read-out: IC50 ± SEM HeLa", "method": "as §1"}, "[6]": {"test": "Solubility in organic solvents", "format": "physicochemical"}},
  "note": "“Also recorded” adds a separate entry of the source.",
  "data": [
    {"compound": "CCN1CCNC1=S.CCN1CCNC1=S.CCN1CCNC1=S.CCN1CCNC1=S.[Cl-].[Cl-].[Pt+2]", "note": "[Complex (2), Tetrakis(1-ethylimidazolidine-2-thione)platinum(II)]", "values": [
      {"measurement": "in vitro cytotoxicity in comparison, A549", "setting": "[1]", "value": "comparable to that of cisplatin; also recorded: almost two times better than that of carboplatin"},
      {"measurement": "IC50", "setting": "[1]", "value": "37.1 ± 1.23", "unit": "µM"},
      {"measurement": "IC80", "setting": "[2]", "value": 11.4, "unit": "µM"},
      {"measurement": "in vitro cytotoxicity in comparison, MCF7", "setting": "[2]", "value": "two-fold better cytotoxic agent against the MCF7 cell line than cisplatin; also recorded: two-fold better as a cytotoxic agent than cisplatin"},
      {"measurement": "IC50", "setting": "[2]", "value": "11.4 ± 1.34", "unit": "µM"},
      {"measurement": "in vitro cytotoxic efficacy in comparison, HCT15", "setting": "[3]; compared with cisplatin and carboplatin", "value": "lies in between cisplatin's and carboplatin's"},
      {"measurement": "IC50", "setting": "[3]", "value": "41.6 ± 1.53", "unit": "µM"},
      {"measurement": "change in chemical shifts and splitting patterns in time dependent 1H NMR spectra (extent of decomposition)", "setting": "[4]", "value": "No significant change"},
      {"measurement": "IC50", "setting": "[5]", "value": "79.2 ± 1.95", "unit": "µM"}
    ]},
    {"compound": "CC(C)N1CCNC1=S.CC(C)N1CCNC1=S.CC(C)N1CCNC1=S.CC(C)N1CCNC1=S.O=[N+]([O-])[O-].O=[N+]([O-])[O-].[Pt+2]", "note": "[Complex (7), Tetrakis(1-isopropylimidazolidine-2-thione)platinum(II)]", "values": [
      {"measurement": "in vitro cytotoxicity in comparison, A549", "setting": "[1]", "value": "almost equal cytotoxicity"},
      {"measurement": "IC50", "setting": "[1]", "value": "84.2 ± 1.09", "unit": "µM"},
      {"measurement": "in vitro cytotoxicity in comparison, MCF7", "setting": "[2]", "value": "very similar cytotoxic data and efficacy"},
      {"measurement": "IC50", "setting": "[2]", "value": "74.4 ± 1.28", "unit": "µM"},
      {"measurement": "IC50", "setting": "[3]", "value": "116 ± 2.09", "unit": "µM"},
      {"measurement": "IC50", "setting": "[5]", "value": "99.9 ± 2.25", "unit": "µM"}
    ]},
    {"compound": "CCN1CCCNC1=S.CCN1CCCNC1=S.CCN1CCCNC1=S.CCN1CCCNC1=S.[Pt+2]", "note": "[Complex (5), Tetrakis[1-ethyltetrahydropyrimidine-2(1H)-thione]platinum(II)]", "values": [
      {"measurement": "IC50", "setting": "[1]", "value": "137 ± 1.77", "unit": "µM"},
      {"measurement": "IC50", "setting": "[2]", "value": "95 ± 2.02", "unit": "µM"},
      {"measurement": "IC50", "setting": "[3]", "value": "159 ± 2.9", "unit": "µM"},
      {"measurement": "IC50", "setting": "[5]", "value": "166 ± 2.01", "unit": "µM"}
    ]},
    {"compound": "CN1CCNC1=S.CN1CCNC1=S.CN1CCNC1=S.CN1CCNC1=S.O.O.[Cl-].[Cl-].[Pt+2]", "note": "[Complex (1), Tetrakis(1-methylimidazolidine-2-thione)platinum(II)]", "values": [
      {"measurement": "in vitro cytotoxicity in comparison, A549", "setting": "[1]", "value": "in between cisplatin and carboplatin"},
      {"measurement": "IC50", "setting": "[1]", "value": "55.5 ± 1.08", "unit": "µM"},
      {"measurement": "in vitro cytotoxicity in comparison, MCF7", "setting": "[2]", "value": "very similar cytotoxic data and efficacy"},
      {"measurement": "IC50", "setting": "[2]", "value": "74.6 ± 1.54", "unit": "µM"},
      {"measurement": "IC50", "setting": "[3]", "value": "147 ± 1.77", "unit": "µM"},
      {"measurement": "change in chemical shifts and splitting patterns in time dependent 1H NMR spectra (extent of decomposition)", "setting": "[4]", "value": "No significant change"},
      {"measurement": "solubility in CDCl3", "setting": "[6]; CDCl3", "value": "moderately soluble"},
      {"measurement": "solubility in DMSO and DMF", "setting": "[6]; DMSO and DMF", "value": "completely soluble"},
      {"measurement": "IC50", "setting": "[5]", "value": "142 ± 2.42", "unit": "µM"}
    ]},
    {"compound": "CCCN1CCNC1=S.CCCN1CCNC1=S.CCCN1CCNC1=S.CCCN1CCNC1=S.[Cl-].[Cl-].[Pt+2]", "note": "[Complex (3), Tetrakis(1-propylimidazolidine-2-thione)platinum(II)]", "values": [
      {"measurement": "in vitro cytotoxicity in comparison, A549", "setting": "[1]", "value": "in between cisplatin and carboplatin"},
      {"measurement": "IC50", "setting": "[1]", "value": "59.2 ± 2.6", "unit": "µM"},
      {"measurement": "IC50", "setting": "[2]", "value": "62.9 ± 1.51", "unit": "µM"},
      {"measurement": "IC50", "setting": "[3]", "value": "95.6 ± 2.14", "unit": "µM"},
      {"measurement": "IC50", "setting": "[5]", "value": "133 ± 1.97", "unit": "µM"}
    ]},
    {"compound": "N.N.[Cl][Pt][Cl]", "note": "[Cisplatin, cisplatin, reference compound]", "values": [
      {"measurement": "IC50", "setting": "[1]", "value": "36.9 ± 1.88", "unit": "µM"},
      {"measurement": "IC80", "setting": "[2]", "value": 21.3, "unit": "µM"},
      {"measurement": "IC50", "setting": "[2]", "value": "21.3 ± 1.54", "unit": "µM"},
      {"measurement": "IC50", "setting": "[3]", "value": "26.6 ± 1.07", "unit": "µM"},
      {"measurement": "IC50", "setting": "[5]", "value": "18.1 ± 1.36", "unit": "µM"}
    ]},
    {"compound": "N.N.O=C([O-])C1(C(=O)[O-])CCC1.[Pt+2]", "note": "[Carboplatin, carboplatin, reference compound]", "values": [
      {"measurement": "IC50", "setting": "[1]", "value": "70.2 ± 1.7", "unit": "µM"},
      {"measurement": "IC50", "setting": "[2]", "value": "53.2 ± 1.65", "unit": "µM"},
      {"measurement": "IC50", "setting": "[3]", "value": "63.3 ± 1.58", "unit": "µM"},
      {"measurement": "IC50", "setting": "[5]", "value": "55 ± 0.94", "unit": "µM"}
    ]},
    {"compound": "CC(C)N1CCNC1=S.CC(C)N1CCNC1=S.CC(C)N1CCNC1=S.CC(C)N1CCNC1=S.[Cl-].[Cl-].[Pt+2]", "note": "[Complex (4), Tetrakis(1-isopropylimidazolidine-2-thione)platinum(II)]", "values": [
      {"measurement": "in vitro cytotoxicity in comparison, A549", "setting": "[1]", "value": "almost equal cytotoxicity"},
      {"measurement": "IC50", "setting": "[1]", "value": "85.7 ± 1.35", "unit": "µM"},
      {"measurement": "in vitro cytotoxicity in comparison, MCF7", "setting": "[2]", "value": "very similar cytotoxic data and efficacy"},
      {"measurement": "IC50", "setting": "[2]", "value": "78.1 ± 1.45", "unit": "µM"},
      {"measurement": "IC50", "setting": "[3]", "value": "122 ± 1.75", "unit": "µM"},
      {"measurement": "IC50", "setting": "[5]", "value": "95.44 ± 0.88", "unit": "µM"}
    ]},
    {"compound": "S=C1NCCCCN1.S=C1NCCCCN1.S=C1NCCCCN1.S=C1NCCCCN1.[Cl-].[Cl-].[Pt+2]", "note": "[Complex (6), Tetrakis(1,3-diazepane-2-thione)platinum(II)]", "values": [
      {"measurement": "IC50", "setting": "[1]", "value": "119 ± 2.25", "unit": "µM"},
      {"measurement": "IC50", "setting": "[2]", "value": "121 ± 3.36", "unit": "µM"},
      {"measurement": "IC50", "setting": "[3]", "value": "108 ± 2.03", "unit": "µM"},
      {"measurement": "IC50", "setting": "[5]", "value": "92.5 ± 2.45", "unit": "µM"}
    ]}
  ]
}
